According to US4000269A, “S-(α-substituted-arylmethylthio, -arylmethylsulfinyl, and -arylmethylsulfonyl)methyl phosphorus esters used as insecticides” (priority 1975, dated 1976):

Columns and labels:
Assay type in all cases: in vivo
[1] = system: Southern corn rootworm larvae (Diabrotica undecimpunctata); assay: Southern Corn Rootworm Control (treated soil, dust on talc); settings: 144 h, potting soil, mortality after 6 days, read-out: Percent Control of Southern Corn Rootworm Larvae; for mortality at 1120.85 g/ha: 1 lbs./Acre; for mortality at 11208.5 g/ha: 10 lbs./Acre; for mortality at 56042.5 g/ha: 50 lbs./Acre
Protocol: Compounds are prepared as dusts on talc. The compounds are dissolved in acetone, and appropriate rates obtained by serial dilution. One and one-quarter milliliters of solution is pipetted onto a standard volume of dust in 1 -ounce jars, and the acetone allowed to evaporate. Twenty-five milliliters of moist soil and about 200 millet seeds are placed in the jar, capped and the contents thoroughly mixed. Ten second-instar larvae of the Southern corn rootworm (Diabrotica undecimpunctata ) are then placed in each jar. Mortality counts are made after 6 days and percent mortality determined.

[2] = system: Mexican Bean Beetle (Epilachna varivestis); assay: F. Mexican Bean Beetle leaf-dip test; settings: 48 h, 2 days, read-out: Percent Mortality, Mexican Bean Beetle
Protocol: Compounds to be tested are made up as 100 or 10 ppm. solutions in 65 % acetone/35 % water. Sieva lima bean leaves are dipped in the test solution and set in the hood to dry. When dry, they are placed in 4 -inch petri dishes which have a moist filter paper in the bottom, and 10 third-instar bean beetles are added to each dish. The dishes are covered and held at 80° F., 60 % R.H. After 2 days, mortality counts and estimates of the amount of feeding are made. Compounds showing kills greater than 75 % are further tested at tenfold dilutions in 65 % acetone/35 % water.

[3] = system: Boll Weevil (Anthonomus grandis); assay: B. Boll Weevil leaf-dip test; settings: 48 h, 100 ppm., 2 days, read-out: Percent Mortality, Boll Weevil
Protocol: (§1) Test compounds are prepared as 1000 ppm. solutions in 10 % acetone, 0.2 % Alrodyne 315 , and 89.8 % water. A tenfold dilution is made with 65 % acetone and 35 % water. The first or second true leaf of young cotton plants is dipped for 3 to 5 seconds in the test solution and placed in an exhaust hood to dry. When dry, each leaf is placed in a 4 -inch petri dish with a moist filter paper on the bottom. Ten adult boll weevils are removed from the stock culture and placed in the petri dish. The dishes are covered and held at 80° F. and 50 % R.H. After 2 days, mortality counts are made.

[4] = system: Southern Armyworm (Prodenia eridania); assay: D. Southern Armyworm leaf-dip test; settings: Spodoptera eridania, 48 h, 2 days, read-out: Percent Mortality, Southern Armyworm
Protocol: Compounds are tested at 1000 and 100 ppm. in solution or suspension in 65 % acetone/35 % water. Sieva lima bean primary leaves are dipped for 3 seconds in the test solution and set in a hood on a screen to dry. When dry, each leaf is placed in a 4 -inch petri dish which has a moist filter paper in the bottom and ten third-instar armyworm larvae about 3/8 inch long. The dishes are covered and held at 80° F., and 60 % R.H. After 2 days, mortality counts and estimates of the amount of feeding are made. Compounds showing partial kill and/or inhibition of feeding are held an extra day for further observations.

[5] = system: Tarnished Plant Bug (Lygus lineolaris); assay: A. Tarnished Plant Bug leaf-dip test; settings: 48 h, 100 ppm., 2 days, read-out: Percent Mortality, Tarnished plant Bug
Protocol: as §1, with “The primary leaves” for “The first or second true leaf”, “of Sieva lima bean” for “of young cotton”, “plants are” for “plants is”, “test solutions” for “test solution”, “adult Lygus bugs” for “adult boll weevils”, “are aspirated” for “are removed”

[6] = system: Bean Aphid (Aphis fabae); assay: C. Bean Aphid spray test; settings: 48 h, 2 days, read-out: Percent Mortality, Bean Aphid
Protocol: Compounds are tested at 100 , 10 and 1 ppm. in solution or suspension in 65 % acetone/35 % water. Two-inch fiber pots each containing a nasturtium plant 2 inches high and infested with about 150 aphids 2 days earlier, are placed on a turntable (4 RPM) and sprayed for two revolutions with a No. 154 DeVilbiss Atomizer at 20 psi. air pressure. The spray tip is held about 6 inches from the plants, and the spray is directed so as to give complete coverage of the aphids and the plants. The sprayed plants are laid on their sides on white enamel trays. Mortality estimates are made after holding for 2 days at 70° F. and 50% R.H.

[7] = system: Two-spotted Spider Mite (Tetranychus urticae); assay: E. Two-spotted Spider Mite plant-dip test; settings: 48 h, read-out: Percent Mortality, Two-spotted Spider Mite; for mortality at 100 ppm: 2 days
Protocol: Sieva lima bean plants with primary leaves 3 to 4 inches long are infested with about 100 adult mites per leaf 4 hours before use in this test. The mite and egg infested plants are dipped for 3 seconds in the same solutions used in the aphid test, and the plants set in the hood to dry. They are held for 2 days at 80° F., 60% R.H., and the adult mite mortality estimated on one leaf under a steroscopic microscope. The other leaf is left on the plant an additional 5 days and then examined at 10 X power to estimate the kill of eggs and of newly hatched nymphs, giving a measure of ovicidal and residual action, respectively.

[8] = system: Western Potato Leafhopper (Empoasca abrupta); assay: G. Western Potato Leafhopper plant-dip test; settings: 48 h, 2 days, read-out: Percent Mortality, Western Potato Leafhopper
Protocol: Sieva lima bean plants with the primary leaf expanded to 3 to 4 inches are dipped into 100 or 10 ppm. 50 % acetone/50 % water solutions and set in the hood to dry. A 1 -inch piece of the tip of a treated leaf is cut off and placed in a 4 -inch petri dish with a moist filter paper in the bottom. From 3 to 10 second-instar nymphs are tapped from the culture plants into the test dish and rapidly covered. Mortality counts are made after 2 days at 80° F., and 50 % R.H.

[9] = system: Malaria Mosquito (Anopheles quadrimaculatus); assay: H. Malaria Mosquito Adult Test; settings: 24 h, adults, 1 day, read-out: Percent Mortality, Malaria Mosquito
Protocol: Solutions of 65% acetone/35% water containing 10 ppm. of test compound are poured into wide-mouth 2-ounce jars, each containing a microscope slide. The slides are removed from the test solution with forceps and laid horizontally to dry on a wide-mouth 4-ounce bottle. When dry, they are placed in the same 4-ounce bottle and 10 4- to 5-day-old mosquitoes of mixed sexes are added to each bottle. A piece of cotton gauze held on by an elastic band serves as a lid, and wad of cotton soaked in 10% honey solution serves as food. Mortality counts are made after 1 day at 80° F., 50% R.H. (relative humidity) Data obtained with the above procedures are reported in Table II below.

Row | Structure (SMILES) | mortality at 1120.85 g/ha [1] [%] | mortality at 11208.5 g/ha [1] [%] | mortality at 56042.5 g/ha [1] [%] | mortality at 10 ppm [2] [%] | mortality at 100 ppm [2] [%] | mortality at 100 ppm [3] [%] | mortality at 100 ppm [4] [%] | mortality at 1000 ppm [4] [%] | mortality at 100 ppm [5] [%] | mortality at 1 ppm [6] [%] | mortality at 10 ppm [6] [%] | mortality at 100 ppm [6] [%] | mortality at 100 ppm [7] [%] | mortality at 300 ppm [7] [%] | mortality at 10 ppm [8] [%] | mortality at 100 ppm [8] [%] | mortality at 10 ppm [9] [%]
1 | CCOP(=S)(OCC)SCSC(C)(C)c1cccc(C)c1 [Example 14, S-(m,α,α-Trimethylbenzylthio)methyl O,O-Diethyl Phosphorodithioate] | 100 | 100 | 100 | – | – | – | – | – | – | – | – | – | – | – | – | – | –
2 | CCOP(=S)(OCC)SCSC(C)(CC)c1ccccc1 (stereo not drawn) [Example 21, S-(α-Ethyl-α-methylbenzylthio)methyl O,O-Diethyl Phosphorodithioate] | 0 | 100 | 100 | – | – | – | – | – | – | – | – | – | – | – | – | – | –
3 | CCOP(=S)(OCC)SC[S+]([O-])C(C)(C)c1ccccc1 (centres unmarked) [drawing 8] | – | – | – | 40 | 100 | 100 | 80 | 100 | 0 | 100 | 100 | 100 | 100 | 100 | 100 | 100 | –
4 | COP(=S)(OC)SCSC(C)(C)c1ccc(C#N)cc1 [drawing 9] | – | – | – | – | 90 | 90 | 100 | 100 | 0 | 100 | 100 | 100 | 100 | 100 | 100 | 100 | 60
5 | COP(=S)(OC)SCSC(C)(C)c1cc(Cl)ccc1Cl [drawing 10] | – | – | – | – | – | 90 | 100 | 100 | 60 | 50 | 100 | 100 | 100 | 100 | 40 | 100 | 70
6 | COP(=S)(OC)SCSC(C)(C)c1ccc(Cl)c(Cl)c1 [drawing 21] | – | – | – | 0 | 30 | 70 | 100 | 100 | 40 | 98 | 100 | 100 | 100 | 100 | 0 | 100 | 67
7 | COP(=S)(OC)SCSC(C)(C)c1ccc(C#N)cc1 [Example 24, S-(p-Cyano-α,α-dimethylbenzylthio)methyl O,O-Dimethyl Phosphorodithioate] | 0 | 100 | 100 | – | – | – | – | – | – | – | – | – | – | – | – | – | –
8 | COP(=S)(OC)SCSC(C)(C)c1ccccc1 [drawing 13] | – | – | – | 80 | 80 | 100 | 100 | 100 | 90 | 80 | 100 | 100 | 100 | 100 | 100 | 100 | –
9 | CCOP(=S)(OCC)SCSC(C)(C)c1ccccc1 [drawing 6] | – | – | – | 40 | 100 | 95 | 100 | 100 | 94 | 85 | 100 | 100 | 75 | – | 100 | 100 | 100
10 | CCOP(=S)(OCC)SCSC(C)(C)c1cccc(C)c1 [drawing 17] | – | – | – | – | – | – | 20 | 100 | 0 | 0 | 100 | 100 | – | 0 | – | 0 | 0
11 | CCOP(=S)(OCC)SCSC(C)(C)c1ccc(Cl)c(Cl)c1 [drawing 20] | – | – | – | 0 | 30 | 50 | 100 | 100 | 0 | 0 | 90 | 100 | 100 | 100 | 0 | 100 | 0
12 | CCOP(=S)(OCC)SCSC(C)(C)c1cc(Cl)ccc1Cl [Example 10, S-(2,5-Dichloro-α,α-dimethylbenzylthio)-methyl O,O-Diethyl Phosphorodithioate] | 0 | 100 | 100 | – | – | – | – | – | – | – | – | – | – | – | – | – | –
13 | CCOP(=S)(OCC)SCSC(CC)(CC)c1ccccc1 [Example 22, S-(α,α-Diethylbenzylthio)methyl O,O-Diethyl Phosphorodithioate] | 50 | 100 | 100 | – | – | – | – | – | – | – | – | – | – | – | – | – | –
